{
  "source": "patent US11549123B2",
  "about": "“Plant EPSP synthases and methods of use” (PIONEER HI-BRED INTERNATIONAL, INC., priority 2015, dated 2023)",
  "type_in_all_cases": "biochemical",
  "key": {"[1]": {"molecular_target": "T1, Zea mays EPSPS variant Zm-H6 (868-H6) with A76V (H6-A76V) (Zea mays, UniProt O24566, A1R/A3W/A415G/A71Q/A75V/D401G/E301S/E390G/G101A/I207L/K83R/L97C/T278A/T360S/T440Q/V437R)", "T1 sequence (O24566 with tags, fused parts or gaps A1R/A3W/A71Q/A75V/K83R/L97C/G101A/I207L/T278A/E301S/T360S/E390G/D401G/A415G/V437R/T440Q)": "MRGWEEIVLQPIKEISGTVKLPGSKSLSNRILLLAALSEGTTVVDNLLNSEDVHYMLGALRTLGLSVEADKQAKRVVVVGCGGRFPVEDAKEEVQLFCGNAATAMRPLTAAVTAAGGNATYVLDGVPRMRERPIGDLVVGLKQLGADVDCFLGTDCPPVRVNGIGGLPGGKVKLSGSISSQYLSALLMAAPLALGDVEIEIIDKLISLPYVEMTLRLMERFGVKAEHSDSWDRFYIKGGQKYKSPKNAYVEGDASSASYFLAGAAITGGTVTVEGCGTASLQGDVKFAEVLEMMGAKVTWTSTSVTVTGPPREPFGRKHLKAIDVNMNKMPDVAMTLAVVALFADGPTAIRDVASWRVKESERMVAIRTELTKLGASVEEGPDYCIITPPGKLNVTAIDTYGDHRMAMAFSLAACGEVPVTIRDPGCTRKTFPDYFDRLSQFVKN", "assay": "Substrate saturation kinetic analysis with glyphosate, H6-A76V"}, "[2]": {"molecular_target": "T2, Zea mays EPSPS, wild-type, SEQ ID NO:1 (Zea mays, UniProt O24566)", "T2 construct": "expressed in E. coli, purified", "T2 sequence (O24566 entry or part of it)": "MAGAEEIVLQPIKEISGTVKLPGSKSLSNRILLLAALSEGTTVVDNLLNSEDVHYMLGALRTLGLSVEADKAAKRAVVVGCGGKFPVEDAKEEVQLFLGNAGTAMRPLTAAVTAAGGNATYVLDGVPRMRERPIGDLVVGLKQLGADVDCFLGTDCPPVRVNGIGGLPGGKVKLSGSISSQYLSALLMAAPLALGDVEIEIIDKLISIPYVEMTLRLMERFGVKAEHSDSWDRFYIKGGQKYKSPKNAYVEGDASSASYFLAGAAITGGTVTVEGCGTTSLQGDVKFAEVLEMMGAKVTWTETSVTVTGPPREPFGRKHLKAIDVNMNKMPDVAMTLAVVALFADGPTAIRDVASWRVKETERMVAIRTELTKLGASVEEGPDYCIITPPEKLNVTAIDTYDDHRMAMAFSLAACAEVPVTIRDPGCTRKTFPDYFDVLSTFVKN", "assay": "EPSPS reaction rate with or without 10 uM glyphosate, native maize; further: 50 µM PEP and S3P", "conditions": "pH 7; read-out: Reaction rate with 10 μM glyph, % no glyph"}, "[3]": {"molecular_target": "T1, Zea mays EPSPS variant Zm-H6 (868-H6) with A76V (H6-A76V)", "assay": "Rapid two-rate method for (kcat/KM)*KI, H6-A76V", "conditions": "[E] 0.07 uM, [Gly] 1000 uM", "description": "There are several practical considerations for accurately estimating (kcat/KM)*KI with the rapid method. […] 2) The inhibitor concentration must be adjusted so as to obtain a degree of inhibition that minimally amplifies the error in the term v0-vi in Equation 3. If inhibition is too little, v0-vi will be small, and the error in the multiplier vi×v0/(v0-vi) will be large. […] 3) Substrate concentration should be set at the approximate KM of the parental variant(s), subject to the sensitivity of the assay. High substrate concentration obscures sensitivity to the inhibitor and reduces stringency for capturing improvements in KM. Depending on the necessity for speed, there exists opportunity for customizing enzyme and inhibitor concentrations. […] The rapid method was repeated for those and obtained data that correlated better with data obtained by substrate saturation analysis. For screening purposes however, that correlation step is not necessary. Conditions can be set so that variants with a pre-determined minimal fitness level are accurately quantified.\nIn Table 15, parameters above the heavy line for the rapid method were obtained under standard conditions. For variants shown below the heavy line, the rapid analysis was repeated with enzyme or glyphosate concentrations adjusted as needed to generate sufficient signal within the limits for linear initial rates."}, "[4]": {"molecular_target": "T3, Zea mays EPSPS variant Zm-H6 (868-H6) (Zea mays, UniProt O24566, A1R/A3W/A415G/A71Q/D401G/E301S/E390G/G101A/I207L/K83R/L97C/T278A/T360S/T440Q/V437R)", "T3 sequence (O24566 with tags, fused parts or gaps A1R/A3W/A71Q/K83R/L97C/G101A/I207L/T278A/E301S/T360S/E390G/D401G/A415G/V437R/T440Q)": "T1 sequence (O24566 with tags, fused parts or gaps A1R/A3W/A71Q/A75V/K83R/L97C/G101A/I207L/T278A/E301S/T360S/E390G/D401G/A415G/V437R/T440Q) with V76A", "assay": "Substrate saturation analysis with glyphosate (Example 8), Zm-H6", "description": "Generally, (kcat/KM)*KI is obtained by performing substrate saturation analysis in the absence and presence of inhibitor. However, that analysis takes longer. […] To validate the method, (kcat/KM)*KI was quantified using both methods—traditional (saturation) and the instant method (rapid), for variants of maize 5-enolpyruvylshikimate-3-phosphate synthase (EPSPS) and its competitive inhibitor, glyphosate.\nThe amino acid sequence of mature Zea mays EPSPS was obtained from GenBank entry CAA44974.1 (SEQ ID NO:2). A nucleotide sequence was created to add an N-terminal methionine and to optimize codon usage for expression in E. coli. The synthesized gene was cloned into an expression vector that provides a T7 promoter driving expression of the protein and a 10× N-terminal histidine tag. Variants selected for this study include native maize EPSPS and variants generated by a gene shuffling cascade described herein. […] Protein concentration was determined by absorbance at 280 nm using an extinction coefficient of 0.676 OD/mg/m L. The proteins were normalized to 0.5 mg/mL for assay.\nEPSPS activity was determined by quantifying the phosphate generated by the reaction. […] The absorbance change that occurs was monitored continuously at 360 nm, where the extinction is 11,200 M-1 cm-1, with a Spectramax plate reader (Molecular Devices). […]"}},
  "note": "Changes are numbered by the printed parent chain.",
  "data": [
    {"smiles": "O=C(O)CNCP(=O)(O)O", "note": "[glyphosate, N-phosphonomethylglycine]", "values": [
      {"measurement": "Ki", "setting": "[1]", "result": 538, "unit": "µM"},
      {"measurement": "(kcat/KM)*KI", "setting": "[1]; substrate saturation, H6-A76V", "result": 2490},
      {"measurement": "activity at 10 µM", "setting": "[2]", "result": 9.49, "unit": "%"},
      {"measurement": "(kcat/KM)*KI", "setting": "[3]", "result": 2418},
      {"measurement": "Ki", "setting": "[4]", "result": 381, "unit": "µM"},
      {"measurement": "(kcat/KM)*KI", "setting": "[4]; substrate saturation, Zm-H6", "result": 3660}
    ]}
  ]
}
